Assay results reported in patent publication US20120156150A1, “Composition for Improving Skin Condition Comprising Extract from Black Tea as Active Ingredient” (Keimyung University Industry Academic Cooperation Foundation, priority 2010, published 2012).

Key:
[1] = Electron donating ability (DPPH radical scavenging, Blois' method)
Procedure: DPPH radical scavenging effect was measuring according to the Blois' method (1958). […] After adding 1 mL of the test sample in a test tube, 4×10^−4 M DPPH (4 mL) was added. The resulting mixture was shaken vigorously, allowed to stand in warm water of 60° C. for 10 seconds, and absorbance was measured at 525 nm. BHT was used as the positive control group. Then, free radical scavenging activity of each solution was calculated as “% inhibition” according to the following equation: % inhibition=[1−(Asample/Ablank)]×100, wherein Ab1ank is the absorbance of the control group (excluding the test sample) and Asample is the absorbance of the test compound.

Melan-a cells [2] = assay: MTT assay, viability of Melan-a cells; format: cell-based, mouse; conditions: mouse, 48 h
Procedure: (§1) Melan-a cells were purchased from Dr. Dorothy Bennett (St. George's Hospital, UK). Immortalized Melan-a cells with high pigment content are derived from C57BL/6 mouse. The cells were cultured using Roswell Park Memorial Institute (RPMI)-1640 medium containing 10% fetal bovine serum (FBS), 1% penicillin/streptomycin (P/S) and 200 nM 12-O-tetradecanoylphorbol 13-acetate (TPA) in a 10% CO2 incubator at 37° C. for 72 hours.
Melan-a cells were seeded on a 96-well plate (0.5×10^4 cells/well) and cultured in a 10% CO2 incubator at 37° C. for 24 hours. After adding 200 μL of AT, KA, EGCG, GT, WT or BT diluted to various concentrations (3.125, 6.25, 12.5, 25 and 50 μg/mL) using RPMI-1640 medium to the wells, the cells were cultured in a 10% CO2 incubator at 37° C. for 48 hours. Then, the cells were cultured in a medium containing […] in a 10% CO2 incubator at 37° C. for 3 hours. Subsequently, after settling the cells by centrifuging the plate at 1,000 rpm for 10 minutes, the medium was removed. Then, 200 μL of DMSO was added and the cells were suspended for 15 minutes in a plate shaker. Absorbance was measured at 540 nm using an ELISA reader. Cell viability (%) was calculated according to the following equation: % cell viability=(Asample/Ablank)×100, wherein Ablank is the absorbance of the control group (excluding the test sample) and Asample is the absorbance of the test compound.

Melan-a cells [3] = assay: Melanin analysis in Melan-a cells; format: cell-based, mouse; conditions: 12.5 μg/mL, compared with the control group
Procedure: as §1
Melan-a cells were seeded on a 96-well plate (2×10^4 cells/well) and cultured in a 10% CO2 incubator at 37° C. for 24 hours. Then, after adding 200 μL of AT, KA, EGCG, GT, WT or BT diluted to various concentrations (1.563, 3.125, 6.25 and 12.5 μg/mL) using RPMI-1640 medium to the wells, the cells were cultured in a 10% CO2 incubator at 37° C. for 72 hours, and then washed. This procedure was repeated several times. After dissolving Melanin with 1N NaOH, absorbance was measured at 490 nm using an ELISA reader. Melanin content (%) was calculated according to the following equation: % melanin content=(Asample/Ablank)×100, wherein Ablank is the absorbance of the control group (excluding the test sample) and Asample is the absorbance of the test compound.

| Structure (SMILES) | Electron donating ability ([1]; 800 μg/mL) [%] | Electron donating ability ([1]; 1,000 μg/mL) [%] | maximum permissible level (MPL) (Melan-a cells [2]) | melanin content decreased by (Melan-a cells [3]) [%] |
| --- | --- | --- | --- | --- |
| Cc1cc(C(C)(C)C)c(O)c(C(C)(C)C)c1 [BHT, 2,6-di-tert-butyl-4-methylphenol] | 89 | 55 | – | – |
| O=c1cc(CO)occ1O [KA, kojic acid] | 19 | – | exceeds 50 μg/mL | 7 |
